The target of experiment [1] is Sarcoplasmic/endoplasmic reticulum calcium ATPase 1 (Homo sapiens, UniProt O14983). Kind of experiment: Inhibition of SERCA1a (unknown origin) ATPase activity.
In experiment [2] the test system is Plasmodium falciparum. Kind of experiment: Antimalarial activity against chloroquine-sensitive Plasmodium falciparum FCR3 infected in human type A+ erythrocytes assessed as growth inhibition after 72 hrs by LDH assay. The class given is functional, organism-based. The note with it: FCR3, 72 h.
In a further experiment the test system is MRC5. Kind of experiment: Growth inhibition of human MRC5 cells after 7 days by MTT assay. The format is cell-based. The note with it: MRC5, 168 h.
A further experiment concerns HeLa. Kind of experiment: Growth inhibition of human HeLa cells after 72 hrs by MTT assay. The class given is cell-based.
Experiment [3] has as its system Plasmodium falciparum. Kind of experiment: Antimalarial activity against chloroquine-resistant Plasmodium falciparum K1 infected in human type A+ erythrocytes assessed as growth inhibition after 72 hrs by LDH assay. The format is functional, organism-based. The note with it: K1, 72 h.
The subject of experiment [4] is Plasmodium falciparum. Kind of experiment: Antimalarial activity against Plasmodium falciparum 3D7. The format is functional, organism-based.
Experiment [5] concerns Plasmodium falciparum. Kind of experiment: Antimalarial activity against Plasmodium falciparum FcB1. The note with it: FcB1/Columbia. The format is functional, organism-based.

Sarcoplasmic/endoplasmic reticulum calcium ATPase 1, sequence (O14983 whole entry): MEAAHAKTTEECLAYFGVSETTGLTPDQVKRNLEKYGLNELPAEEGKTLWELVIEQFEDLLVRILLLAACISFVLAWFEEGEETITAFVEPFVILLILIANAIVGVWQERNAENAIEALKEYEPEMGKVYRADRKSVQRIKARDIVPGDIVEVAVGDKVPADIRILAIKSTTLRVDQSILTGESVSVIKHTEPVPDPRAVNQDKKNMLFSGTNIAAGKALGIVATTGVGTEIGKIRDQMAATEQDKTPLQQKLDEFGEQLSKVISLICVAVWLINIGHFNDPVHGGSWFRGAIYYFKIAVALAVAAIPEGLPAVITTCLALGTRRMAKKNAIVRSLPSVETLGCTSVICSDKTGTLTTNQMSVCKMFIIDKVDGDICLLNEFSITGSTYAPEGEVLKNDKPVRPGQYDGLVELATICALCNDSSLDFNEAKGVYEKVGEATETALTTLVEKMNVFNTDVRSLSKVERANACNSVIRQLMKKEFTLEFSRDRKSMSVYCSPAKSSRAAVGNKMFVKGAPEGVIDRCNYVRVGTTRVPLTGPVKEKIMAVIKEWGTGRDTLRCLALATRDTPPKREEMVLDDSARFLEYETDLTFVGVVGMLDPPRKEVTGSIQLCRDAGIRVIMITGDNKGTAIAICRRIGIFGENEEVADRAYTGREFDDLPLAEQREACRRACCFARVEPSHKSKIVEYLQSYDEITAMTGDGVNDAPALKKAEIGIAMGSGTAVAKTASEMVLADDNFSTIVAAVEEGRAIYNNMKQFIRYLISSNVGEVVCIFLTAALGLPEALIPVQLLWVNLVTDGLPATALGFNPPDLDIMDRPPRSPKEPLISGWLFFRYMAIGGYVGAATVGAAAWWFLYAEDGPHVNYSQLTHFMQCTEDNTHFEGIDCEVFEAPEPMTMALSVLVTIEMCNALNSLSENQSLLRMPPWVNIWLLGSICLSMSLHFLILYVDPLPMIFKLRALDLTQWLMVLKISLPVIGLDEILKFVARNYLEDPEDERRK

As for `C/C=C/C/C(C)=C\[C@H]1C/C=C/C=C/C[C@H](C)/C=C(\C)[C@@H](OC)C/C=C/[C@@H](O)CC(=O)O1`, the Ki in experiment [1] worked out at 0.017 µM. Moreover, the IC50 in the experiment with Plasmodium falciparum [2] came to 23.5 µM; in the experiment on MRC5 it was 0.23 µM; with HeLa, 0.0028 µM; in the experiment with Plasmodium falciparum [3], 24 µM.

As to `CCNC(=O)/C(C)=C\[C@H]1C/C=C/C=C/C[C@H](C)/C=C(\C)[C@@H](OC)C/C=C/[C@@H](O)CC(=O)O1`, the IC50 in the experiment on Plasmodium falciparum [2] was 17 µM; in the experiment with MRC5 it was 2.9 µM; in the experiment with HeLa it was 9.2 µM; in the experiment with Plasmodium falciparum [3] it was 16 µM.

For `CC(=O)C1=C(O)[C@@H]2[C@H]3c4c[nH]c5cccc(c45)C[C@H]3C(C)(C)N2C1=O` [CYCLOPIAZONIC ACID], the Ki in experiment [1] was 1.8 µM. In addition, the IC50 turned out to be 8.8 µM in the experiment with Plasmodium falciparum [4] and 4.9 µM in the experiment with Plasmodium falciparum [5].

Consider `C/C=C/C/C(C)=C\[C@H]1C/C=C/C=C/C[C@H](C)/C=C(\C)[C@@H](OC)C/C=C/[C@@H](O[C@@H]2O[C@H](CO)[C@@H](O)[C@H](OC)[C@H]2O)CC(=O)O1`, for which the Ki in experiment [1] amounted to 0.019 µM. Besides, the IC50 with Plasmodium falciparum [2] came to 4.4 µM; with MRC5 it was 0.4 µM; in the experiment with HeLa it was 2.5 µM; with Plasmodium falciparum [3], 3.4 µM.

In the case of `CO[C@H]1C/C=C/[C@@H](O)CC(=O)O[C@@H](/C=C(/C)CNC(C)=O)C/C=C/C=C/C[C@H](C)/C=C/1C`, the IC50 with Plasmodium falciparum [2] was found to be 14 µM; in the experiment with MRC5 it was 3 µM; with HeLa, 4.9 µM; with Plasmodium falciparum [3], 19 µM.

With `CO[C@H]1C/C=C/[C@@H](O)CC(=O)O[C@@H](/C=C(/C)CO)C/C=C/C=C/C[C@H](C)/C=C/1C`, the IC50 with Plasmodium falciparum [2] was 24 µM; in the experiment on MRC5 it was 19 µM; in the experiment on HeLa it was over 30 µM; in the experiment with Plasmodium falciparum [3], over 31 µM.

For `C/C=C(/C)C(=O)O[C@H]1C(C)=C2[C@H]([C@@H]1OC(=O)CCCCCCC)[C@@](C)(OC(C)=O)C[C@H](OC(=O)CCC)[C@@]1(O)[C@H]2OC(=O)[C@@]1(C)O` [THAPSIGARGIN], the Ki in experiment [1] is 0.0001 µM.

The record behind these values is ChEMBL document CHEMBL4184117, “Design, synthesis and anti-malarial activities of synthetic analogs of biselyngbyolide B, a Ca2+ pump inhibitor from marine cyanobacteria” (Bioorg Med Chem Lett, 2018).
